Active and inactive are the calls of the source. The calls are words filed in the database; no cut-off is given here.
Key:
Rattus norvegicus [1] = experiment: Acute toxicity in Wistar rat assessed as effect on normal behavior at 60 mg/kg, po administered as repeated dosing for 28 days; type: organism-based; details: in vivo, 672 h
Rattus norvegicus [2] = experiment: Acute toxicity in Wistar rat assessed as change in grooming behavior at 2000 mg/kg, po administered as single dose measured at 6 hrs post dose; type: organism-based; details: in vivo
Rattus norvegicus [3] = experiment: Acute toxicity in Wistar rat assessed as effect on fur color at 2000 mg/kg, po administered as single dose measured up to 14 days; type: organism-based; details: in vivo, 336 h
Rattus norvegicus [4] = experiment: Anti-atherosclerosis activity in high cholesterol diet-induced Wistar rat atherogenesis model assessed as effect on serum total cholesterol level at 30 mg/kg, po administered once daily measured after 4 weeks; type: functional
Rattus norvegicus [5] = experiment: Acute toxicity in Wistar rat assessed as effect on skin color at 2000 mg/kg, po administered as single dose measured up to 14 days; type: organism-based; details: in vivo, 336 h
Rattus norvegicus [6] = experiment: Acute toxicity in Wistar rat assessed as cutaneous xanthomatosis at 60 mg/kg, po administered as repeated dosing for 42 days; type: organism-based; details: in vivo, 1008 h
Rattus norvegicus [7] = experiment: Acute toxicity in Wistar rat assessed as change in body weight at 60 mg/kg, po administered as repeated dosing for 28 days; type: organism-based; details: in vivo, 672 h
Rattus norvegicus [8] = experiment: Acute toxicity in Wistar rat assessed as macroscopic lesions in adrenal gland at 2000 mg/kg, po administered as single dose measured up to 14 days; type: organism-based; details: in vivo, 336 h
Rattus norvegicus [9] = experiment: Anti-atherosclerosis activity in high cholesterol diet-induced Wistar rat atherogenesis model assessed as reduction in LDL-cholesterol level at 10 mg/kg, po administered once daily measured after 4 weeks; type: functional, organism-based
[10] = Inhibition of rat microsomal SOAT assessed as reduction in cholesteryl oleate formation from oleoyl co-enzyme A pretreated for 15 mins followed by oleoyl co-enzyme A addition after 10 mins by HPTLC method
Rattus norvegicus [11] = experiment: Anti-atherosclerosis activity in high cholesterol diet-induced Wistar rat atherogenesis model assessed as reduction in fatty streak formation in thoracic aorta at 30 mg/kg, po administered once daily measured after 4 weeks by Sudan red 4 staining based photographic method; type: functional, organism-based
Rattus norvegicus [12] = experiment: Anti-atherosclerosis activity in high cholesterol diet-induced Wistar rat atherogenesis model assessed as lipid accumulation lesion area in thoracic aorta at 10 mg/kg, po administered once daily measured after 4 weeks by Sudan red 4 staining based photographic method (reference value: 22.35 +/- 7.9%); type: functional
Rattus norvegicus [13] = experiment: Acute toxicity in Wistar rat assessed as macroscopic lesions in kidney at 2000 mg/kg, po administered as single dose measured up to 14 days; type: organism-based; details: in vivo, 336 h
Rattus norvegicus [14] = experiment: Acute toxicity in Wistar rat assessed as effect on water intake at 2000 mg/kg, po administered as single dose measured at 6 hrs post dose; type: organism-based; details: in vivo
Rattus norvegicus [15] = experiment: Acute toxicity in Wistar rat assessed as shrinkage of adrenal gland at 2000 mg/kg, po administered as single dose measured up to 14 days; type: organism-based; details: in vivo, 336 h
Rattus norvegicus [16] = experiment: Acute toxicity in Wistar rat assessed as macroscopic lesions in heart at 2000 mg/kg, po administered as single dose measured up to 14 days; type: organism-based; details: in vivo, 336 h
Rattus norvegicus [17] = experiment: Toxicity in Wistar rat assessed as effect on body weight at 10 mg/kg, po administered once daily measured after 4 weeks (reference value: 290.3 +/- 8.1 g); type: organism-based; details: in vivo, 672 h
Rattus norvegicus [18] = experiment: Acute toxicity in Wistar rat assessed as effect on mucus of lungs at 2000 mg/kg, po administered as single dose measured up to 14 days; type: organism-based; details: in vivo, 336 h
Rattus norvegicus [19] = experiment: Anti-atherosclerosis activity in high cholesterol diet-induced Wistar rat atherogenesis model assessed as reduction in triglyceride level at 10 to 30 mg/kg, po administered once daily measured after 4 weeks; type: functional, organism-based
Rattus norvegicus [20] = experiment: Acute toxicity in Wistar rat assessed as hematological changes at 60 mg/kg, po administered as repeated dosing for 28 days; type: organism-based; details: in vivo, 672 h
Rattus norvegicus [21] = experiment: Toxicity in Wistar rat assessed as effect on body weight at 30 mg/kg, po administered once daily measured after 4 weeks (reference value: 290.3 +/- 8.1 g); type: organism-based; details: in vivo, 672 h
Rattus norvegicus [22] = experiment: Acute toxicity in Wistar rat assessed as change in body weight at 2000 mg/kg, po administered as single dose measured at 6 hrs post dose; type: organism-based; details: in vivo
Rattus norvegicus [23] = experiment: Anti-atherosclerosis activity in high cholesterol diet-induced Wistar rat atherogenesis model assessed as lipid accumulation lesion area in thoracic aorta at 30 mg/kg, po administered once daily measured after 4 weeks by Sudan red 4 staining based photographic method relative to control; type: functional
Rattus norvegicus [24] = experiment: Acute toxicity in Wistar rat assessed as effect on urinary excretion at 60 mg/kg, po administered as repeated dosing for 28 days; type: organism-based; details: in vivo, 672 h
Rattus norvegicus [25] = experiment: Acute toxicity in Wistar rat assessed as changes in adrenal gland shape at 2000 mg/kg, po administered as single dose measured up to 14 days; type: organism-based; details: in vivo, 336 h
Rattus norvegicus [26] = experiment: Anti-atherosclerosis activity in high cholesterol diet-induced Wistar rat atherogenesis model assessed as reduction in lumenal lipid plaque formation in aortic roots at 10 to 30 mg/kg, po administered once daily measured after 4 weeks by Sudan red 4 staining based photographic method; type: functional, organism-based
Rattus norvegicus [27] = experiment: Anti-atherosclerosis activity in po dosed high cholesterol diet-induced Wistar rat atherogenesis model assessed as increase in HDL-cholesterol level administered once daily measured after 4 weeks; type: functional, organism-based
Rattus norvegicus [28] = experiment: Acute toxicity in Wistar rat assessed as macroscopic lesions in brain at 2000 mg/kg, po administered as single dose measured up to 14 days; type: organism-based; details: in vivo, 336 h
Rattus norvegicus [29] = experiment: Anti-atherosclerosis activity in high cholesterol diet-induced Wistar rat atherogenesis model assessed as reduction in LDL-cholesterol level at 30 mg/kg, po administered once daily measured after 4 weeks; type: functional, organism-based
Rattus norvegicus [30] = species: Rattus norvegicus; experiment: Inhibition of rat microsomal SOAT assessed as reduction in cholesteryl oleate formation from oleoyl co-enzyme A at 10 uM pretreated for 15 mins followed by oleoyl co-enzyme A addition measured after 10 mins by HPTLC method relative to control
Rattus norvegicus [31] = experiment: Anti-hypercholesterolemic activity in poloxamer-407-induced Wistar rat lipoprotein lipase inhibition model assessed as fold change in triglyceride level at 20 mg/kg administered as single dose via oral gavage pretreated for 4 hrs followed by poloxamer-407 induction measured over 24 hrs (reference value: 80); type: functional
Rattus norvegicus [32] = experiment: Anti-atherosclerosis activity in high cholesterol diet-induced Wistar rat atherogenesis model assessed as atherogenic index at 30 mg/kg, po administered once daily measured after 4 weeks (reference value: 19.59 +/- 5.8); type: functional
Rattus norvegicus [33] = experiment: Anti-atherosclerosis activity in high cholesterol diet-induced Wistar rat atherogenesis model assessed as atherogenic index at 10 mg/kg, po administered once daily measured after 4 weeks (reference value: 19.59 +/- 5.8); type: functional
Rattus norvegicus [34] = experiment: Toxicity in Wistar rat assessed as adrenal toxicity at 10 to 30 mg/kg, po administered once daily measured after 4 weeks; type: organism-based; details: in vivo, 672 h
Rattus norvegicus [35] = experiment: Acute toxicity in Wistar rat assessed as changes in adrenal gland size at 2000 mg/kg, po administered as single dose measured up to 14 days; type: organism-based; details: in vivo, 336 h
Rattus norvegicus [36] = experiment: Acute toxicity in Wistar rat assessed as effect on food intake at 60 mg/kg, po administered as repeated dosing for 28 days; type: organism-based; details: in vivo, 672 h
Rattus norvegicus [37] = experiment: Toxicity in Wistar rat assessed as cutaneous toxicity at 10 to 30 mg/kg, po administered once daily measured after 4 weeks; type: organism-based; details: in vivo, 672 h

CCCCNC(=O)Nc1ccc(-c2sc(C)nc2-c2ccc(C)cc2)cc1
Activity (Rattus norvegicus [1]): Non-Toxic | Activity (Rattus norvegicus [2]): Non-Toxic | Activity (Rattus norvegicus [3]): Non-Toxic | Activity (Rattus norvegicus [4]): 138 mg/dL | Activity (Rattus norvegicus [5]): Non-Toxic | Activity (Rattus norvegicus [6]): Non-Toxic | Activity (Rattus norvegicus [7]): Non-Toxic | Activity (Rattus norvegicus [8]): Non-Toxic | Activity (Rattus norvegicus [9]): inactive | IC50 [10]: 2.43 µM | pIC50 [10]: 5.614 | Activity (Rattus norvegicus [11]): Active | Activity (Rattus norvegicus [12]): 16.21% | Activity (Rattus norvegicus [13]): Non-Toxic | Activity (Rattus norvegicus [14]): Non-Toxic | Activity (Rattus norvegicus [15]): Non-Toxic | Activity (Rattus norvegicus [16]): Non-Toxic | Activity (Rattus norvegicus [17]): 294 g | Activity (Rattus norvegicus [18]): Non-Toxic | Activity (Rattus norvegicus [19]): inactive | Activity (Rattus norvegicus [20]): Non-Toxic | Activity (Rattus norvegicus [21]): 299 g | Activity (Rattus norvegicus [22]): Non-Toxic | fold change (FC) (Rattus norvegicus [23]): 3 | Activity (Rattus norvegicus [24]): Non-Toxic | Activity (Rattus norvegicus [25]): Non-Toxic | Activity (Rattus norvegicus [26]): Active | Activity (Rattus norvegicus [27]): Dose-dependent effect | Activity (Rattus norvegicus [28]): Non-Toxic | Activity (Rattus norvegicus [29]): Active | inhibition (Rattus norvegicus [30]): 64.9% | fold change (FC) (Rattus norvegicus [31]): 20 | Activity_index (Rattus norvegicus [32]): 1.82 | Activity_index (Rattus norvegicus [33]): 7.55 | Activity (Rattus norvegicus [34]): Non-Toxic | Activity (Rattus norvegicus [35]): Non-Toxic | Activity (Rattus norvegicus [36]): Non-Toxic | Activity (Rattus norvegicus [37]): Non-Toxic
